From ChEMBL document CHEMBL1201862, “PubChem BioAssay data set” (2004)
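96-well plates; 48 h exposure; 5 concentrations. Endpoints by linear interpolation between flanking doses. Not reached: highest tested concentration assigned. GI50 marks 50% less growth.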 Activity calls are given as the source filed them. No stated cut-off is given here; in the data, active = GI50 up to about 1.1 µM and inactive = higher.

Experiments:
Test in all cases: DTP human tumour cell line panel, 48 h
Hs-578T = tested on: Hs-578T
HCC 2998 = tested on: HCC 2998
HOP-62 = tested on: HOP-62
EKVX = tested on: EKVX
M14 = tested on: M14
Malme-3M = tested on: Malme-3M
UO-31 = tested on: UO-31
LOX IMVI = tested on: LOX IMVI
OVCAR-4 = tested on: OVCAR-4
K562 = tested on: K562
SN12C = tested on: SN12C
CAKI-1 = tested on: CAKI-1
RXF 393 = tested on: RXF 393
OVCAR-3 = tested on: OVCAR-3
NCI-H460 = tested on: NCI-H460
MCF7 = tested on: MCF7
IGROV-1 = tested on: IGROV-1
BT-549 = tested on: BT-549
786-0 = tested on: 786-0
SK-MEL-2 = tested on: SK-MEL-2

Structure (SMILES)	GI50 (Hs-578T)	GI50 (HCC 2998)	GI50 (HOP-62)	GI50 (EKVX)	GI50 (M14)	GI50 (Malme-3M)	GI50 (UO-31)	GI50 (LOX IMVI)	GI50 (OVCAR-4)	GI50 (K562)	GI50 (SN12C)	GI50 (CAKI-1)	GI50 (RXF 393)	GI50 (OVCAR-3)	GI50 (NCI-H460)	GI50 (MCF7)	GI50 (IGROV-1)	GI50 (BT-549)	GI50 (786-0)	GI50 (SK-MEL-2)
CNC(=O)CCC(NC(=O)OC(C)(C)C)C(=O)NC(Cc1ccc(NC(=O)CCCCC(C)=O)cc1)C(=O)NCC(=O)NC (stereo unspecified)	> 100 µM (inactive)	> 100 µM (inactive)	> 100 µM (inactive)	> 100 µM (inactive)	> 100 µM (inactive)	> 100 µM (inactive)	> 100 µM (inactive)	> 100 µM (inactive)	> 100 µM (inactive)	> 100 µM (inactive)	> 100 µM (inactive)	> 100 µM (inactive)	> 100 µM (inactive)	> 100 µM (inactive)	> 100 µM (inactive)	> 100 µM (inactive)	> 100 µM (inactive)	> 100 µM (inactive)	> 100 µM (inactive)	–
CCOC(=O)NNC(=O)NCCNC(=O)NNC(=O)OCC	> 100 µM (inactive)	> 100 µM (inactive)	–	> 100 µM (inactive)	> 100 µM (inactive)	> 100 µM (inactive)	> 100 µM (inactive)	> 100 µM (inactive)	> 100 µM (inactive)	> 100 µM (inactive)	> 100 µM (inactive)	> 100 µM (inactive)	> 100 µM (inactive)	> 100 µM (inactive)	> 100 µM (inactive)	> 100 µM (inactive)	–	> 100 µM (inactive)	> 100 µM (inactive)	> 100 µM (inactive)
O=C(O)CCN1C(=S)CSC1=S	> 100 µM (inactive)	–	> 100 µM (inactive)	> 100 µM (inactive)	> 100 µM (inactive)	> 100 µM (inactive)	–	94.4 µM (inactive)	> 100 µM (inactive)	78 µM (inactive)	> 100 µM (inactive)	> 100 µM (inactive)	> 100 µM (inactive)	> 100 µM (inactive)	88.1 µM (inactive)	67.5 µM (inactive)	> 100 µM (inactive)	> 100 µM (inactive)	> 100 µM (inactive)	> 100 µM (inactive)
CC(C)Cc1c(C#N)c(C#N)c(N)n1Cc1ccccc1	> 100 µM (inactive)	> 100 µM (inactive)	> 100 µM (inactive)	> 100 µM (inactive)	> 100 µM (inactive)	> 100 µM (inactive)	> 100 µM (inactive)	> 100 µM (inactive)	> 100 µM (inactive)	> 100 µM (inactive)	> 100 µM (inactive)	> 100 µM (inactive)	> 100 µM (inactive)	> 100 µM (inactive)	–	> 100 µM (inactive)	> 100 µM (inactive)	> 100 µM (inactive)	> 100 µM (inactive)	> 100 µM (inactive)
O=C1c2ccccc2C(=O)c2c1c1cc(O)ccc1n2Cc1ccc(Cl)cc1Cl	14 µM (inactive)	–	2.61 µM (inactive)	–	15.9 µM (inactive)	22.8 µM (inactive)	19.1 µM (inactive)	2.9 µM (inactive)	1.9 µM (inactive)	32.2 µM (inactive)	3.88 µM (inactive)	3.9 µM (inactive)	2.14 µM (inactive)	–	3.63 µM (inactive)	4.11 µM (inactive)	6.98 µM (inactive)	18.5 µM (inactive)	2.75 µM (inactive)	16 µM (inactive)
CCn1c(=O)c2c3cc(OC(C)=O)ccc3oc2c2ccc(OC(C)=O)cc21	11.1 µM (inactive)	23.4 µM (inactive)	37.9 µM (inactive)	21 µM (inactive)	45.9 µM (inactive)	39.4 µM (inactive)	26.6 µM (inactive)	–	36.9 µM (inactive)	33.8 µM (inactive)	43.6 µM (inactive)	40 µM (inactive)	37.2 µM (inactive)	39.8 µM (inactive)	21.8 µM (inactive)	35 µM (inactive)	38.9 µM (inactive)	30.5 µM (inactive)	56.1 µM (inactive)	–
Cc1nc2ccc(F)cc2c2c1CCN2c1ccccc1	17.9 µM (inactive)	18.1 µM (inactive)	32.9 µM (inactive)	22.4 µM (inactive)	–	20.2 µM (inactive)	19 µM (inactive)	13.8 µM (inactive)	23.7 µM (inactive)	11.8 µM (inactive)	–	–	15 µM (inactive)	30.5 µM (inactive)	13.5 µM (inactive)	28.1 µM (inactive)	18.6 µM (inactive)	23.4 µM (inactive)	23 µM (inactive)	–
CC[C@@]1(O)CC(OC2CC(N3CCOCC3)C(O)C(C)O2)c2c(O)c3c(c(O)c2[C@H]1O)C(=O)c1cccc(O)c1C3=O (stereo partly specified)	0.348 µM (active)	0.223 µM (active)	0.0679 µM (active)	0.318 µM (active)	0.356 µM (active)	0.0502 µM (active)	–	0.0644 µM (active)	0.231 µM (active)	0.112 µM (active)	0.0667 µM (active)	–	0.196 µM (active)	0.355 µM (active)	0.00686 µM (active)	0.0293 µM (active)	0.0959 µM (active)	0.0508 µM (active)	0.0407 µM (active)	0.312 µM (active)
CCC[C@H](O)[C@@H](CNc1cc(NC(C)=O)nc(NC(C)=O)n1)N(Cc1ccccc1)Cc1ccccc1	14 µM (inactive)	76.4 µM (inactive)	15.2 µM (inactive)	12.1 µM (inactive)	26.5 µM (inactive)	26.1 µM (inactive)	18.1 µM (inactive)	27.9 µM (inactive)	15.7 µM (inactive)	> 100 µM (inactive)	41.3 µM (inactive)	18.2 µM (inactive)	–	18.9 µM (inactive)	21.8 µM (inactive)	8.79 µM (inactive)	12.8 µM (inactive)	16.1 µM (inactive)	17.7 µM (inactive)	27.4 µM (inactive)
CC1(C)[C@@H](Cn2cnc3c(N)ncnc32)CC[C@@]1(C)CO	> 100 µM (inactive)	53 µM (inactive)	> 100 µM (inactive)	> 100 µM (inactive)	> 100 µM (inactive)	> 100 µM (inactive)	81.1 µM (inactive)	> 100 µM (inactive)	> 100 µM (inactive)	17.3 µM (inactive)	> 100 µM (inactive)	> 100 µM (inactive)	> 100 µM (inactive)	73.6 µM (inactive)	> 100 µM (inactive)	74.1 µM (inactive)	42.7 µM (inactive)	> 100 µM (inactive)	> 100 µM (inactive)	–
CSc1nc2cc(S(=O)(=O)N3CCCCC3)ccc2s1	> 100 µM (inactive)	–	57 µM (inactive)	41.3 µM (inactive)	> 100 µM (inactive)	> 100 µM (inactive)	> 100 µM (inactive)	> 100 µM (inactive)	> 100 µM (inactive)	> 100 µM (inactive)	> 100 µM (inactive)	> 100 µM (inactive)	> 100 µM (inactive)	> 100 µM (inactive)	> 100 µM (inactive)	> 100 µM (inactive)	> 100 µM (inactive)	> 100 µM (inactive)	> 100 µM (inactive)	> 100 µM (inactive)
C[C@]12C[C@@H](c3ccccc3)Nc3ccccc3N1C(c1ccccc1)=NO2	77.8 µM (inactive)	81.3 µM (inactive)	77.1 µM (inactive)	24.3 µM (inactive)	32.5 µM (inactive)	42.9 µM (inactive)	29.6 µM (inactive)	–	24.9 µM (inactive)	35.4 µM (inactive)	49.3 µM (inactive)	37.1 µM (inactive)	51.6 µM (inactive)	46.8 µM (inactive)	52.1 µM (inactive)	31 µM (inactive)	38.1 µM (inactive)	40.9 µM (inactive)	56.6 µM (inactive)	25.6 µM (inactive)
Clc1ccccc1C(Nc1ncccn1)Nc1ncccn1	> 100 µM (inactive)	> 100 µM (inactive)	> 100 µM (inactive)	> 100 µM (inactive)	> 100 µM (inactive)	–	> 100 µM (inactive)	> 100 µM (inactive)	> 100 µM (inactive)	> 100 µM (inactive)	> 100 µM (inactive)	> 100 µM (inactive)	> 100 µM (inactive)	> 100 µM (inactive)	> 100 µM (inactive)	> 100 µM (inactive)	> 100 µM (inactive)	> 100 µM (inactive)	> 100 µM (inactive)	> 100 µM (inactive)
C[C@]12CC[C@H]3[C@@H](CCC4=C(Br)C(=O)C=C[C@@]43O)[C@@H]1CCC2=O	62.8 µM (inactive)	–	50 µM (inactive)	61.2 µM (inactive)	39.3 µM (inactive)	93.5 µM (inactive)	42.2 µM (inactive)	32.3 µM (inactive)	33.3 µM (inactive)	32.7 µM (inactive)	33.7 µM (inactive)	31.6 µM (inactive)	21.1 µM (inactive)	45.4 µM (inactive)	23.5 µM (inactive)	38.9 µM (inactive)	36 µM (inactive)	20.7 µM (inactive)	24.9 µM (inactive)	40.9 µM (inactive)
Clc1ccc(/C=C/c2nc(-c3ccc(Cl)cc3)cn3c2nc2ccccc23)cc1	> 100 µM (inactive)	> 100 µM (inactive)	> 100 µM (inactive)	> 100 µM (inactive)	> 100 µM (inactive)	> 100 µM (inactive)	> 100 µM (inactive)	> 100 µM (inactive)	> 100 µM (inactive)	> 100 µM (inactive)	> 100 µM (inactive)	–	> 100 µM (inactive)	> 100 µM (inactive)	> 100 µM (inactive)	50.5 µM (inactive)	55.7 µM (inactive)	> 100 µM (inactive)	> 100 µM (inactive)	> 100 µM (inactive)
